We go through 18 compounds from US6492374B2, “Benzofuran derivatives, their preparation and use” (H. Lundbeck A/S, priority 1998, dated 2002).

In general, melting point refers to the temperature, or range, at which the solid turns liquid. As a reminder, the IC50 is the concentration that gives 50% inhibition. The low end stands for greater potency in that assay, the high end for weaker potency in that assay.

Series [1] concerns the target T1, cloned human 5-HT1A receptors (Homo sapiens, UniProt P08908).
T1 construct: expressed in transfected cells; host or cells: HeLa cells (HA7), stably transfected; cell homogenate
T1 sequence (P08908 1-422): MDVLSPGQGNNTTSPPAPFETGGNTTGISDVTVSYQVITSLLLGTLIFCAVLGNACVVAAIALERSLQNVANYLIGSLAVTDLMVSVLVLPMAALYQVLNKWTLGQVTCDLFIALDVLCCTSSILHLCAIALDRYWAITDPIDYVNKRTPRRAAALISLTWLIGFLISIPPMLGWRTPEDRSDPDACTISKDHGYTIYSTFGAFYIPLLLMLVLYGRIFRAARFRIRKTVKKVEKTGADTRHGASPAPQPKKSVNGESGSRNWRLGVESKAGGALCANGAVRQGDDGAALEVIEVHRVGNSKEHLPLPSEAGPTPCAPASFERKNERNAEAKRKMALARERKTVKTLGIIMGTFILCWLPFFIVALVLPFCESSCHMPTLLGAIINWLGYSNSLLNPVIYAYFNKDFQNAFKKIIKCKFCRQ
Description: Inhibition of 3H-5-CT binding to human 5-HT1A receptors. The note with it: cloned human 5-HT1A receptors expressed in HeLa cells (HA7). The procedure:
Inhibition of ^3H-5CT Binding to Human 5-HT1A Receptors
Human 5-HT1A receptors (40 μg of cell homogenate) were incubated for 15 minutes at 37° C. in 50 mM Tris buffer at pH 7.7 in the presence of ^3H-5-CT. Non-specific binding was determined by including 10 μM of metergoline. The reaction was terminated by rapid filtration through Unifilter GF/B filters on a Tomtec Cell Harvester. Filters were counted in a Packard Top Counter.

Series [2] has as its system serotonin reuptake (3H-5-HT uptake into whole rat brain synaptosomes). The series is described as follows: Inhibition of 3H-5-HT uptake into rat brain synaptosomes. It counts as biochemical. Here is the method:
Inhibition of ^3H-5HT Uptake Into Rat Brain Synaptosomes
Using this method, the ability of drugs to inhibit the accumulation of ^3H-5-HT into whole rat brain synaptosomes is determined in vitro.

In turn, `CN(CCCC1(c2ccc(F)cc2)OCc2cc(C#N)ccc21)Cc1cccc2c1OCCO2.O=C(O)C(=O)O` (stereo not shown) displayed a melting point of 160 to 162 °C.

Consider `CN(CCCc1cccc2c1OCCO2)CCCC1(c2ccc(F)cc2)OCc2cc(F)ccc21.O=C(O)C(=O)O` (stereo not shown), for which the melting point lay in the range of 131 to 133 °C.

`CN(CCCc1cccc2c1OCCO2)CCCC1(c2ccc(F)cc2)OCc2cc(C#N)ccc21.O=C(O)C(=O)O` (single isomer, unassigned; (+)) [Compound 1b, (+)-1-[3-[[3-(1,4-Benzodioxan-5-yl)propyl]methylamino]propyl]-1-(4-fluorophenyl)-1,3-dihydroisobenzofuran-5-carbonitrile oxalate] returned a melting point of 114 to 116 °C. In addition, the IC50 in series [1] amounted to 12 nM.

With `CN(CCCC1(c2ccc(F)cc2)OCc2cc(C#N)ccc21)CCc1cccc2c1OCCO2.O=C(O)C(=O)O` (stereo not shown) [Compound 1c, 1-[3-[[2-(1,4-Benzodioxan-5-yl)ethyl]methylamino]propyl]-1-(4-fluorophenyl)-1,3-dihydroisobenzofuran-5carbonitrile oxalate], the melting point was in the range of 118 to 120 °C. The compound also showed an IC50 in series [1] of 53 nM.

As to `CCN(CCCc1c[nH]c2c(F)cccc12)CCCC1(c2ccc(F)cc2)OCc2cc(C#N)ccc21` (stereo not shown) [Compound 12p, 1-[3-[Ethyl[3-(7-fluoro-1H-indol-3-yl)propyl]amino]propyl]-1-(4-fluorophenyl)-1,3-dihydroisobenzofuran-5carbonitrile], the IC50 in series [1] amounted to 19 nM; in series [2], 11 nM.

As for `CCN(CCCc1c[nH]c2ccc(F)cc12)CCCC1(c2ccc(F)cc2)OCc2cc(C#N)ccc21` (stereo not shown) [Compound 12q, 1-[3-[Ethyl[3-(5-fluoro-1H-indol-3-yl)propyl]amino]propyl]-1-(4-fluorophenyl)-1,3-dihydroisobenzofuran-5carbonitrile], the IC50 in series [1] worked out at 12 nM; in series [2], 6.3 nM.

In the case of `CN(CCCc1c[nH]c2ccc(Cl)cc12)CCCC1(c2ccc(F)cc2)OCc2cc(C#N)ccc21` (stereo not shown) [Compound 12r, 1-[3-[[3-(5-Chloro-1H-indol-3-yl)propyl]methylamino]propyl]-1-(4-fluorophenyl)-1,3-dihydroisobenzofuran-5-carbonitrile], the IC50 in series [1] is 16 nM. In addition, the “Inhibition of serotonin reuptake % inhibition at 100 nM” value in series [2] is listed as 47% inh. at 100 nM.

`CCN(CCCC1(c2ccc(F)cc2)OCc2cc(C#N)ccc21)CCc1c[nH]c2c(Cl)cccc12` (stereo not shown) [Compound 12s, 1-[3-[[2-(7-Chloro-1H-indol-3-yl)ethyl]ethylamino]propyl]-1-(4-fluorophenyl)-1,3-dihydroisobenzofuran-5-carbonitrile]: the half-maximal inhibitory concentration (IC50) came to 7.7 nM in series [1] and 18 nM in series [2].

`CCN(CCCC1(c2ccc(F)cc2)OCc2cc(C#N)ccc21)CCc1c[nH]c2c(F)cc(F)cc12` (stereo not shown) [Compound 12u, 1-[3-[[2-(5,7-Difluoro-1H-indol-3-yl)ethyl]ethylamino]propyl]-1-(4-fluorophenyl)-1,3-dihydroisobenzofuran-5-carbonitrile]: the IC50 in series [1] stood at 9 nM; in series [2], 22 nM.

Regarding `CCN(CCCCc1c[nH]c2ccc(F)cc12)CCCC1(c2ccc(F)cc2)OCc2cc(C#N)ccc21` (stereo not shown) [Compound 12v, 1-[3-[[4-(5-Fluoro-1H-indol-3-yl)butyl]ethylamino]propyl]-1-(4-fluorophenyl)-1,3-dihydroisobenzofuran-5-carbonitrile], the figures for the 50% inhibitory concentration (IC50) in series [1] and in series [2] were 39 nM and 12 nM, respectively.

With `CCN(CCCc1c[nH]c2ccc(Cl)cc12)CCCC1(c2ccc(F)cc2)OCc2cc(C#N)ccc21` (stereo not shown) [Compound 12x, 1-[3-[[3-(5-Chloro-1H-indol-3-yl)propyl]ethylamino]propyl]-1-(4-fluorophenyl)-1,3-dihydroisobenzofuran-5-carbonitrile], the IC50 in series [1] was 14 nM. Besides, in series [2], the “Inhibition of serotonin reuptake % inhibition at 100 nM” value was 50% inh. at 100 nM.

In the case of `C=CCN(CCCC1(c2ccc(F)cc2)OCc2cc(C#N)ccc21)CCc1c[nH]c2ccc(F)cc12` (stereo not shown) [Compound 13b, 1-[3-[[2-(5-Fluoro-1H-indol-3-yl)ethyl](prop-2-en-1-yl)amino]propyl]-1-(4-fluorophenyl)-1,3-dihydroisobenzofuran-5-carbonitrile], the half-inhibitory concentration (IC50) stood at 7.4 nM in series [1] and 44 nM in series [2].

In the case of `C=CCN(CCCC1(c2ccc(F)cc2)OCc2cc(C#N)ccc21)CCc1c[nH]c2c(F)cccc12` (stereo not shown) [Compound 13c, 1-[3-[[2-(7-Fluoro-1H-indol-3-yl)ethyl](prop-2-en-1-yl)amino]propyl]-1-(4-fluorophenyl)-1,3-dihydroisobenzofuran-5-carbonitrile], the IC50 in series [1] worked out at 9.6 nM; in series [2], 12 nM.

Consider `C=CCN(CCCc1c[nH]c2ccc(F)cc12)CCCC1(c2ccc(F)cc2)OCc2cc(C#N)ccc21` (stereo not shown) [Compound 13d, 1-[3-[[3-(5-Fluoro-1H-indol-3-yl)propyl](prop-2-en-1-yl)amino]propyl]-1-(4-fluorophenyl)-1,3-dihydroisobenzofuran-5-carbonitrile], for which the IC50 in series [1] was found to be 15 nM; in series [2], 21 nM.

`C=CCN(CCCc1c[nH]c2c(F)cccc12)CCCC1(c2ccc(F)cc2)OCc2cc(C#N)ccc21` (stereo not shown) [Compound 13e, 1-[3-[[3-(7-Fluoro-1H-indol-3-yl)propyl](prop-2-en-1-yl)amino]propyl]-1-(4-fluorophenyl)-1,3-dihydroisobenzofuran-5-carbonitrile]: the results for the IC50 in series [1] and in series [2] were 22 nM and 27 nM, respectively.

As to `C=CCN(CCCC1(c2ccc(F)cc2)OCc2cc(C#N)ccc21)CCc1c[nH]c2ccc(Cl)cc12` (stereo not shown) [Compound 13f], the IC50 in series [1] was 31 nM. For the same compound, the “Inhibition of serotonin reuptake % inhibition at 100 nM” value in series [2] turned out to be 16% inh. at 100 nM.

Turning to `CCCN(CCCC1(c2ccc(F)cc2)OCc2cc(C#N)ccc21)CCc1c[nH]c2c(F)cc(F)cc12` (stereo not shown) [Compound 13g, 1-[3-[[2-(5,7-Difluoro-1H-indol-3-yl)ethyl]propylamino]propyl]-1-(4-fluorophenyl)-1,3-dihydroisobenzofuran-5-carbonitrile], the IC50 in series [1] was 18 nM. For the same compound, in series [2], the “Inhibition of serotonin reuptake % inhibition at 100 nM” value was 49% inh. at 100 nM.

`C=CCN(CCCC1(c2ccc(F)cc2)OCc2cc(C#N)ccc21)CCc1c[nH]c2c(C)ccc(Cl)c12` (stereo not shown) [Compound 13j, 1-[3-[[2-(4-Chloro-7-methyl-1H-indol-3-yl)ethyl](prop-2-en-1-yl)amino]propyl]-1-(4-fluorophenyl)-1,3-dihydroisobenzofuran-5-carbonitrile] displayed a concentration for half-maximal inhibition (IC50) in series [1] of 16 nM. In addition, the “Inhibition of serotonin reuptake % inhibition at 100 nM” value in series [2] was 61% inh. at 100 nM.
